Legend:
Assay type in all cases: in vivo
[1] = system: redroot pigweed (Amaranthus retroflexus, AMARE); test: Pre-emerge test, greenhouse herbicide activity screening; conditions: pre-emerge, 14 days after application, scale 0-100
Procedure, shortened: (§1)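 Compounds in acetone were track-sprayed at 187 l/ha, 15–1000 g ai/ha, onto sandy loam pots. Pre-emerge seeds were sown one day before spraying, with surface watering afterwards. Post-emerge plants were at the 2–3 leaf stage and sprayed with 0.25% v/v non-ionic surfactant. Injury was rated 0–100 at 14 days.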

[2] = system: upland rice (Oryza sp., var. Tebonnet, RICE); test: Pre-emerge test, crop safety; conditions: pre-emerge, 14 days after application, scale 0-100
Procedure, shortened: (§2)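 Plants grown in 10 cm pots of sandy loam mix received acetone-dissolved compounds through a moving flat-fan nozzle. Doses ranged from 15 to 1000 g ai/ha. Pre-emerge pots were seeded one day earlier, post-emerge pots 8–21 days earlier. Fourteen days on, each pot was graded 0–100 for damage.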

[3] = system: field corn (Zea mays L., var. Dekalb 535, CORN); test: Pre-emerge test, crop safety; conditions: pre-emerge, 14 days after application, scale 0-100
Procedure, shortened: as §2

[4] = system: sicklepod (Cassia obtusifolia, CASOB); test: Post-emerge test, greenhouse herbicide activity screening; conditions: post-emerge, 14 days after application, rating scale 0-100
Procedure, shortened: as §1

[5] = system: lambsquarters (Chenopodium album, CHEAL); test: as above; conditions: post-emerge, 14 days after application, rating scale 0-100
Procedure, shortened: as §1

[6] = system: large crabgrass (Digitaria sanguinalis, DIGSA); test: as above; conditions: post-emerge, 14 days after application, rating scale 0-100
Procedure, shortened: as §1

[7] = system: velvetleaf (Abutilon theophrasti, ABUTH); test: as above; conditions: post-emerge, 14 days after application, rating scale 0-100
Procedure, shortened: as §1

[8] = system: johnsongrass (Sorghum halepense, SORHA); test: as above; conditions: post-emerge, 14 days after application, rating scale 0-100
Procedure, shortened: as §1

[9] = system: ivyleaf morningglory (Ipomoea hederacea, IPOHE); test: as above; conditions: post-emerge, 14 days after application, rating scale 0-100
Procedure, shortened: as §1

[10] = system: barnyardgrass (Echinochloa crus-galli, ECHCG); test: as above; conditions: post-emerge, 14 days after application, rating scale 0-100
Procedure, shortened: as §1

[11] = system: green foxtail (Setaria viridis, SETVI); test: as above; conditions: post-emerge, 14 days after application, rating scale 0-100
Procedure, shortened: as §1

[12] = system: redroot pigweed (Amaranthus retroflexus, AMARE); test: as above; conditions: post-emerge, 14 days after application, rating scale 0-100
Procedure, shortened: as §1

[13] = system: upland rice (Oryza sp., var. Tebonnet, RICE); test: Post-emerge test, crop safety; conditions: post-emerge, 14 days after application, rating scale 0-100
Procedure, shortened: (§3)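 Fourteen days after spraying, crop and weed injury was graded visually from 0, no effect, to 100, every plant dead. Test substances were dissolved in acetone and applied at 15–1000 g ai/ha with a flat-fan nozzle. Application was either pre-emergence, one day after sowing, or post-emergence at the 2–3 leaf stage.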

[14] = system: field corn (Zea mays L., var. Dekalb 535, CORN); test: Post-emerge test, crop safety; conditions: post-emerge, 14 days after application, rating scale 0-100
Procedure, shortened: as §3

[15] = system: sicklepod (Cassia obtusifolia, CASOB); test: Pre-emerge test, greenhouse herbicide activity screening; conditions: pre-emerge, 14 days after application, scale 0-100
Procedure, shortened: as §3

[16] = system: lambsquarters (Chenopodium album, CHEAL); test: as above; conditions: pre-emerge, 14 days after application, scale 0-100
Procedure, shortened: as §3

[17] = system: large crabgrass (Digitaria sanguinalis, DIGSA); test: as above; conditions: pre-emerge, 14 days after application, scale 0-100
Procedure, shortened: as §3

[18] = system: velvetleaf (Abutilon theophrasti, ABUTH); test: as above; conditions: pre-emerge, 14 days after application, scale 0-100
Procedure, shortened: as §3

[19] = system: johnsongrass (Sorghum halepense, SORHA); test: as above; conditions: pre-emerge, 14 days after application, scale 0-100
Procedure, shortened: as §3

[20] = system: ivyleaf morningglory (Ipomoea hederacea, IPOHE); test: as above; conditions: pre-emerge, 14 days after application, scale 0-100
Procedure, shortened: as §3

[21] = system: barnyardgrass (Echinochloa crus-galli, ECHCG); test: as above; conditions: pre-emerge, 14 days after application, scale 0-100
Procedure, shortened: as §3

[22] = system: green foxtail (Setaria viridis, SETVI); test: as above; conditions: pre-emerge, 14 days after application, scale 0-100
Procedure, shortened: as §3

## COc1c(Br)cc(F)c(-n2c(=O)cc(C(F)(F)F)n(C)c2=O)c1N(C(=O)C=Cc1ccccc1)C(=O)C=Cc1ccccc1 [2-176]
[1]; 63 g ai/ha
  phytotoxicity rating AMARE: 50
[1]; 250 g ai/ha
  phytotoxicity rating AMARE: 90
[2]; 63 g ai/ha
  phytotoxicity rating RICE (crop damage): 0
[2]; 250 g ai/ha
  phytotoxicity rating RICE (crop damage): 0
[3]; 63 g ai/ha
  phytotoxicity rating CORN (crop damage): 0
[3]; 250 g ai/ha
  phytotoxicity rating CORN (crop damage): 0
[4]; 63 g ai/ha
  CASOB phytotoxicity rating: 10
[4]; 250 g ai/ha
  CASOB phytotoxicity rating: 30
[5]; 63 g ai/ha
  CHEAL phytotoxicity rating: 80
[5]; 250 g ai/ha
  CHEAL phytotoxicity rating: 90
[6]; 63 g ai/ha
  DIGSA phytotoxicity rating: 0
[6]; 250 g ai/ha
  DIGSA phytotoxicity rating: 0
[7]; 63 g ai/ha
  ABUTH phytotoxicity rating: 50
[7]; 250 g ai/ha
  ABUTH phytotoxicity rating: 90
[8]; 63 g ai/ha
  SORHA phytotoxicity rating: 0
[8]; 250 g ai/ha
  SORHA phytotoxicity rating: 0
[9]; 63 g ai/ha
  IPOHE phytotoxicity rating: 70
[9]; 250 g ai/ha
  IPOHE phytotoxicity rating: 95
[10]; 63 g ai/ha
  ECHCG phytotoxicity rating: 0
[10]; 250 g ai/ha
  ECHCG phytotoxicity rating: 0
[11]; 63 g ai/ha
  SETVI phytotoxicity rating: 0
[11]; 250 g ai/ha
  SETVI phytotoxicity rating: 0
[12]; 63 g ai/ha
  AMARE phytotoxicity rating: 100
[12]; 250 g ai/ha
  AMARE phytotoxicity rating: 100
[13]; 63 g ai/ha
  RICE phytotoxicity rating (crop damage): 10
[13]; 250 g ai/ha
  RICE phytotoxicity rating (crop damage): 30
[14]; 63 g ai/ha
  CORN phytotoxicity rating (crop damage): 0
[14]; 250 g ai/ha
  CORN phytotoxicity rating (crop damage): 5
[15]; 63 g ai/ha
  phytotoxicity rating CASOB: 0
[15]; 250 g ai/ha
  phytotoxicity rating CASOB: 0
[16]; 63 g ai/ha
  phytotoxicity rating CHEAL: 90
[16]; 250 g ai/ha
  phytotoxicity rating CHEAL: 100
[17]; 63 g ai/ha
  phytotoxicity rating DIGSA: 0
[17]; 250 g ai/ha
  phytotoxicity rating DIGSA: 20
[18]; 63 g ai/ha
  phytotoxicity rating ABUTH: 0
[18]; 250 g ai/ha
  phytotoxicity rating ABUTH: 70
[19]; 63 g ai/ha
  phytotoxicity rating SORHA: 0
[19]; 250 g ai/ha
  phytotoxicity rating SORHA: 0
[20]; 63 g ai/ha
  phytotoxicity rating IPOHE: 0
[20]; 250 g ai/ha
  phytotoxicity rating IPOHE: 40
[21]; 63 g ai/ha
  phytotoxicity rating ECHCG: 0
[21]; 250 g ai/ha
  phytotoxicity rating ECHCG: 0
[22]; 63 g ai/ha
  phytotoxicity rating SETVI: 0
[22]; 250 g ai/ha
  phytotoxicity rating SETVI: 20

Reference: US6355799B1, “Substituted benzene compounds, process for their preparation, and herbicidal and defoliant compositions containing them” (ISK Americas Incorporated, priority 1997, dated 2002)
